Key:
[1] = test system: DU145 cell line; assay: Cell viability / cell growth, MTT assay; format: cell-based, human; conditions: DU145, 0-40 mM, compared to control
Protocol: DU145 (human HRPC cell line, derived from a patient with brain metastasis) and PrEC (human normal prostate epithelial cell line) cell lines were obtained from Korea Cell Line Bank (KCLB, Seoul, South Korea). DU145 and PrEC cell lines were grown in triplicate culture plates containing RPMI-1640 (HyClone, Logan, Utah, USA) and Dulbecco's Modified Eagle's Medium (HyClone, Logan, Utah, USA) respectively, and kept in a humidified atmosphere containing 5% CO2 at 37° C. for 72 h. The media were supplemented with 10% heat-inactivated fetal bovine serum (HyClone, Logan, Utah, USA), 1% antibio-antimicotic solution containing 10,000 units/ml of penicillin and 10 mg/ml of streptomycin (HyClone, Logan, Utah, USA), HEPES, sodium bicarbonate, p-aminobenzoic acid and insulin (complete culture media). D-Allose was purchased from Sigma (St. Louis, Mo., USA) and dissolved at a concentration of 1 M in sterile phosphate-buffered saline (PBS), and was further sterilized by filtration. To examine the dose- and time-dependent effects, the cell lines (70-80% confluent) were treated with 0-40 mM of D-allose for up to 72 h, whereas without D-allose treated cell lines (0 mM) were considered as control. DU145 cell line was also treated with 0-40 mM of D-glucose. All the other chemicals used in the work were procured from Sigma (St. Louis, Mo., USA), unless otherwise specified.
The logarithmic growth phase of DU145 and PrEC cell lines were taken for growth assay using 3-[4,5-dimethylthiazol-2-yl]-2,5-diphenyl tetrazolium bromide (MTT). […] After incubation for the specified time at 37° C. in a humidified 5% CO2 incubator, cell viability was determined. […] To achieve solubilization of formazan crystal formed in viable cells, DMSO was added to each well, and the absorbance was recorded on a microplate reader at 595 nm wavelength. The effect of sugars on growth inhibition was assessed as percent cell viability where control cells were taken as 100% viable.

[2] = test system: DU145 cell line; assay: Apoptotic indices by DAPI staining, confocal microscopy; format: cell-based, human; conditions: DU145, 24, 48 and 72 h
Protocol: The Annexin-V-FLUOS Staining Kit (Roche Diagnostics GmbH, Mannheim, Germany) was used for the detection and quantification of the apoptotic cells. This kit uses a dual-staining protocol in which the apoptotic cells are stained with annexin-V (green fluorescence) and the necrotic cells are stained with propidium iodide (PI, red fluorescence). Briefly, DU145 cell line was grown at a density of 1×10^6 cells in triplicate culture plates and then treated with D-allose (0, 20 and 40 mM) for 48 and 72 h. The cells were treated with trypsin and harvested with PBS and processed for labeling with annexin-V and PI by the use of the kit according to the manufacturer's protocol. The fluorescence was measured by flow cytometric analysis, performed on a FACSCalibur (Becton Dickinson, San Jose, Calif., USA) using 488 nm excitation and a 515 nm band pass filter for fluorescein detection and a filter [600 nm for PI detection (FL1: Annexin-V-FLUOS; FL2: PI). Further, apoptotic indices were measured by analysis of fragmented or scattered nuclei and condensed chromosome as the stringent morphological criteria of apoptosis, detectable by confocal microscopy on cells stained with DNA-intercalating dye […] (DAPI). For this purpose, DU145 and PrEC cell lines were exposed to 0, 20 and 40 mM of D-allose for up to 72 h, stained with DAPI (1 μg/ml in methanol), mounted with Prolong Antifade reagent (Molecular Probes, Eugene, Oreg., USA), and images were acquired by use of a confocal laser scanning microscope (Fluoview FV 1000, Olympus, Japan). The numbers of apoptotic nuclei per 100 cells were counted from the five high power fields/slide and apoptotic indices were expressed as a percentage of the untreated controls in each cell line, considering the value as 100%. DU145 cell line was also treated with 0-40 mM of D-glucose for determination of apoptotic indices as mentioned above.

## O=C[C@H](O)[C@@H](O)[C@H](O)[C@H](O)CO [D-glucose, reference compound]
[1]
  cell growth (MTT assay): significant increase of cell growth in a dose-dependent manner
[2]
  programmed cell death (apoptotic indices, DAPI staining): no remarkable effect
